Test results taken from US12503426B2, “Synthetic derivatives of oleoyl-lysophosphatidylinositol (oleoyl-LPI) and uses thereof” (LIPOVEXA SRL, priority 2017, dated 2025).

How the values were obtained:
[1] = system: pancreatic islets; test: Glucose-stimulated insulin secretion (GSIS) of isolated islets; assay type: cell-based, mice; settings: 16.7 mM glucose
Experimental: After euthanasia, pancreatic islets were isolated as described in detail elsewhere (Carter, J. D., S. B. Dula, K. L. Corbin, R. P. Wu and C. S. Nunemaker (2009), Biological Procedures Online, Vol 11(1), pp:3-31). Following purification, islets were rested overnight at 37° C. in a humidified atmosphere of 95% air and 5% CO2 in RPMI 1640 medium supplemented with 10% FBS, 100 units/ml penicillin and 0.1 mg/ml streptomycin.
Glucose-stimulated insulin secretion (GSIS) was performed on isolated mouse islets after resting them overnight in supplemented RPMI 1640 medium at 37° C. in a humidified atmosphere of 95% air and 5% CO2. Briefly, islets were hand-picked and placed in groups of five into individual micro centrifuge tubes. Islets were washed twice, then incubated with Krebs buffer (KRB, 115 mM NaCl; 4.7 mM KCl; 1.28 mM CaCl2·2H2O; 1.2 mM KH2PO4; 1.2 mM MgSO4·7H2O; 10 mM NaHCO3; 10 mM HEPES; 0.5% BSA; pH 7.4) supplemented with 1.1 mM glucose for 40 minutes at 37° C. Supernatants were discarded, then islets were incubated with KRB supplemented with 16.7 mM glucose for 20 minutes. Supernatants were collected for insulin determination using Mouse Ultrasensitive Insulin ELISA (Mercodia, Uppsala, Sweden) according to manufacturer instructions and data was reported as picograms of Insulin per islet in 20 minutes (pg/islet/20 min).

[2] = target: T1, human GPR119 (Homo sapiens, UniProt Q8TDV5); test: cAMP assay in GPR119 transfected COS-7 cells; assay type: cell-based; settings: COS-7 cells expressing human GPR119, agonists 30 min; read-out: EC50, production of cAMP
T1 construct: expressed in transfected cells; host or cells: COS-7 cells, calcium phosphate transfection
T1 sequence (Q8TDV5 1-335): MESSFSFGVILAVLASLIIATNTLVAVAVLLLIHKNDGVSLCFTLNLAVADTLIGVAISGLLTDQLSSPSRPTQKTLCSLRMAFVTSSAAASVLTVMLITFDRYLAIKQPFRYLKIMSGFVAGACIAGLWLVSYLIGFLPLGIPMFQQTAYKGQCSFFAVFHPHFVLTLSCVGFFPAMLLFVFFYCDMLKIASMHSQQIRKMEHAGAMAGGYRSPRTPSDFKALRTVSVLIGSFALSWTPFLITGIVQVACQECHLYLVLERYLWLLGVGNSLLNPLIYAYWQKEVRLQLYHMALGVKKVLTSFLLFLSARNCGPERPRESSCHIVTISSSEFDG
Experimental: COS-7 cells were cultured in Dulbecco's modified Eagle medium (DMEM) 1885 supplemented with 10% FBS, […] L-glutamine and 180 IU/ml penicillin+[…] streptomycin (Pen Strep) (Life Technologies, CA, USA) at 37° C. and 10% CO2. The COS-7 cells were transiently transfected with GPR119 or pcDNA by the calcium phosphate transfection method for 5 hours in 37° C., 10% CO2 as described by Kissow H, Hartmann B, Hoist J J, Viby N E, Hansen L S, Rosenkilde M M, Hare K J, Poulsen S S. Regul Pept. 2012. Vol: 179(1-3), pp 91-100; the disclosure of which is incorporated herein in its entirety by way of reference.
COS-7 cells were transfected with about 40 μg GPR119 DNA or pcDNA3 per […] flask. One day after transfection, the cells were seeded out (about 35,000 cell/well) in a 96 well white plate (Perkin Elmer, Massachusetts, USA). The cells were washed twice the following day and incubated for 30 min, at 37° C. with HBS and 1 mM IBMX (Sigma Aldrich, USA). Agonists were added for 30 min in the assay medium. The Hithunter® cAMP XS+ (DiscoveRx, Fremont, USA) was carried out by following the manufacturer's instructions.
Accordingly, the work outlined in this example evaluates whether activation of GPR119 by oleoyl-LPI in enteroendocrine L cell affect the proglucagon gene expression by monitoring the CREB activity. […]

[3] = system: colonic cells of the GI tract obtained from guinea pig; test: Ex vivo GLP-1 biosynthesis and secretion, guinea pig GI tract cells; assay type: cell-based
Outline: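 Colonic/rectal crypts and cells from a pregnant guinea pig, collagenase-P digested and cultured one day on Matrigel, then exposed 2 h at 37 °C in serum-free DMEM with KR-62436 10 μg/ml and compound (20 μM, quadruplicate; EC50 also determined). Active GLP-1 in supernatant measured by ELISA, normalised to DMSO control.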

Question: “oleoyl-lysophosphatidylinositol [oleoyl-LPI]” was tested. Which “insulin secretion response to stimulation” value ([1]; GPR119−/− islets) did it give?
Answer: completely lost the ability to respond

Question: And the “enhancement of acute insulin secretion” value ([1]; wild type islets, oleoyl-LPI 20 μM, 20 minutes)?
Answer: approximately 50%

Question: And the EC50 [2]?
Answer: 0.239 µM

Question: And the “GLP-1 biosynthesis and secretion ex vivo” value ([3]; 20 μM, 2 hours, standardized against DMSO control)?
Answer: stimulated biosynthesis and secretion

Question: What about the EC50 ([3]; ex vivo incubation 2 hours, quadruplicates) of the same substance?
Answer: 32.7 µM
